Values after ≈ are worked out from the molar mass of the structure shown.
Assays:
[1] = tested on: B. subtilis OCC 214; test: growth on nutrient agar, mixed culture with K. pneumoniae (Example 8); format: cell-based, Bacillus subtilis
Source text: (§1) Example 6 was repeated, this time using a mixed culture of B. subtilis OCC 214 and K. pneumoniae CMCC 3077, in the presence of AEP or alaphosphin. The empty columns show the growth of B. subtilis, the shaded columns denote growth of K. pneumoniae.

[2] = tested on: Enterococcus faecium 220; test: MIC in DMSal medium (Example 17); format: cell-based; conditions: Enterococcus faecium, 220
[3] = tested on: Staphylococcus aureus OCC 102; test: growth on nutrient agar streak plates, pure culture (Example 5); format: cell-based; conditions: S. aureus OCC 102, nutrient agar, 0-10 mM tested
Source text: Example 1 was repeated using Staphylococcus aureus OCC 102 as the test organism.

[4] = tested on: Klebsiella pneumoniae CMCC3077; test: total viable count in Nutrient Broth (Example 10); format: cell-based; conditions: 5 mM in Nutrient Broth, within a 4 hour period
Procedure: Growth curve data on the activity of alaphosphin towards Klebsiella spp. was generated. Particular attention was paid to measuring the kinetics of inhibition in broth culture. The media used in this work were Buffered Peptone Water, Nutrient Broth and Tryptone Soya Agar. The media were prepared according to the manufacturer's instructions.
The selective agents, AEP (Cat. No. 06655) and alaphosphin (Cat. No. 05260), were supplied by Fluka. They were dissolved in water at 0.5M concentration, filter-sterilised, and 100 μl added to 10 ml of Nutrient Broth to give a final concentration in the test medium of 5 mM of AEP or alaphosphin respectively.
Klebsiella pneumnoniae CMCC3077 was chosen, as it is a food isolate and work had been carried out previously on this organism using alaphosphin and AEP (see preceding examples). The organism was inoculated into Nutrient Broth and incubated overnight at 37° C. […] The test media were incubated at 37° C., and sampled at hourly intervals. The cultures were serially diluted in Buffered Peptone Water and inoculated onto Tryptone Soya Agar. These plates were incubated overnight at 37° C. and the total viable count made the next day.
Typical results are shown in FIG. 15 which is a graph of total viable count (log10 cfu/ml) against time (hours).

[5] = tested on: strains of Escherichia coli; test: Bioscreen growth in Lab-Lemco broth (Example 11), E. coli strains; format: cell-based; conditions: 64 μg/ml, Lab-Lemco broth pH 5.7, 37° C., four E. coli strains
Procedure: (§2) Thus, Ala-AEP was dissolved in deionised water (7.0 mg/ml), filter sterilised, and an amount of the solution added to autoclaved Lab-Lemco broth (20 g/l; pH 5.7) to give a concentration of 70 μg/ml. Volumes (300 μl) of this solution were then pipetted into the wells of Bioscreen microtitre plates and 30 μl quantities of 1 in 10,000 dilutions of overnight cultures added (reducing the final alaphosphin concentration to 64 μg/m). Plates were then covered, incubated at 37° C., and the opacity of the organism suspensions measured using a Bioscreen instrument. Growth of the Salmonella strains was unaffected whereas the E. coli strains were all inhibited.
(§3) Typical results are shown in FIG. 16, which is a graph of Optical Density against time (hours). Growth of S. indiana OCC 2412 and S. worthington OCC 634 is denoted by crosses and circles respectively.

[6] = tested on: Enterococcus faecalis 501; test: MIC in DMSal medium (Example 17); format: cell-based; conditions: Enterococcus faecalis, 501
[7] = tested on: S. aureus OCC 102; test: growth on nutrient agar, mixed culture with K. pneumoniae (Example 6); format: cell-based, Staphylococcus aureus; conditions: S. aureus in mixed culture with K. pneumoniae
Source text: Example 1 was repeated, this time using a mixed culture of K. pneumoniae CMCC 3077 and S. aureus OCC 102. The results for growth in the presence of AEP or alaphosphin are shown in FIGS. 7 and 8 respectively: empty columns represent growth of S. aureus, the shaded columns represent growth of K. pneumoniae. […] Accordingly, there is a considerable alaphosphin concentration range over which S. aureus will readily grow whilst K. pneumoniae will be inhibited. Even if K. pneumoniae cells lyse due to the toxic effect of AEP released intracellularly, the AEP is not toxic for S. aureus at the concentrations involved.

[8] = tested on: S. indiana OCC 2412 and S. worthington OCC 634; test: Bioscreen growth in Lab-Lemco broth (Example 11), Salmonella strains; format: cell-based; conditions: 64 μg/ml, Lab-Lemco broth pH 5.7, 37° C.
Procedure: as §2, §3

[9] = tested on: K. pneumoniae CMCC 3077; test: growth on nutrient agar, mixed culture with B. subtilis (Example 8); format: cell-based, Klebsiella pneumoniae; conditions: K. pneumoniae in mixed culture with B. subtilis, nutrient agar
Source text: as §1

[10] = tested on: E. coli strains; test: inhibition of E. coli strains on DMSal agar for selective growth of Salmonella (Example 16); format: cell-based, Escherichia coli; conditions: DMSal agar
Procedure: (§4) The experiments were conducted as follows: nutrient agar medium was autoclaved and, on cooling (but prior to setting) filter-sterilised alaphosphin or AEP were incorporated at final concentrations of 1 mM, 2 mM, 5 mM and 10 mM, and the medium used to pour plates. Control plates were prepared using nutrient agar without alaphosphin or AEP. A single colony of the organism under test was inoculated in 10 ml of nutrient broth and incubated (without agitation) at 37° C. for 4 hours.
(§5) Trp-AEP was compared to alaphosphin (Ala-AEP) for selective growth of Salmonella strains on DMSal agar.

[11] = tested on: Klebsiella aerogenes 323; test: MIC / growth in DMSal (Example 16); format: cell-based; conditions: Klebsiella aerogenes 323, DMSal, 1.5 μg/ml
Procedure: as §4, §5

[12] = tested on: Klebsiella pneumoniae 411; test: MIC / growth in DMSal (Example 16); format: cell-based; conditions: Klebsiella pneumoniae 411, DMSal, 1.5 μg/ml
Procedure: as §4, §5

[13] = tested on: Salmonella typhimurium 722; test: MIC / growth in DMSal (Example 16); format: cell-based; conditions: Salmonella typhimurium 722, DMSal, 1.5 μg/ml
Procedure: as §4, §5

[14] = tested on: Salmonella enteriditis 723; test: MIC / growth in DMSal (Example 16); format: cell-based; conditions: Salmonella enteriditis 723, DMSal, 1.5 μg/ml
Procedure: as §4, §5

[15] = tested on: Serratia marcescens 217; test: MIC / growth in DMSal (Example 16); format: cell-based; conditions: Serratia marcescens 217, DMSal, 1.5 μg/ml
Procedure: as §4, §5

[16] = tested on: Salmonella arizonae 1200; test: MIC / growth in DMSal (Example 16); format: cell-based; conditions: Salmonella arizonae 1200, DMSal, 1.5 μg/ml
Procedure: as §4, §5

[17] = tested on: Salmonella virchow 703; test: MIC / growth in DMSal (Example 16); format: cell-based; conditions: Salmonella virchow 703, DMSal, 1.5 μg/ml
Procedure: as §4, §5

[18] = tested on: Citrobacter freundii 370; test: MIC / growth in DMSal (Example 16); format: cell-based; conditions: Citrobacter freundii 370, DMSal, 1.5 μg/ml
Procedure: as §4, §5

[19] = tested on: Enterobacter sakazakii 1888; test: MIC in DMSal medium (Example 17); format: cell-based; conditions: Cronobacter sakazakii, 1888

C[C@H](N)C(=O)N[C@@H](C)P(=O)(O)O [alaphosphin, L-alanyl-L-1-aminoethylphosphonic acid]
sensitivity of growth (in words) [1]: insensitive
MIC [2]: > 50 µg/mL
concentration at which growth is completely inhibited [3]: 10 mM
reduction in the viable count [4]: two to three log reduction
growth (optical density) in presence of the agent [5]: all inhibited
MIC [6]: 10 µg/mL (≈ 51 µM)
concentration at which growth is inhibited [7]: 10 mM
growth (optical density) in presence of the agent [8]: unaffected
concentration at which growth is completely inhibited [9]: ≥ 2 mM
concentration needed to inhibit the growth of E. coli strains [10]: 1.5 µg/mL
growth with Ala-AEP (1.5 μg/ml) [11]: Growth
growth with Ala-AEP (1.5 μg/ml) [12]: Growth
growth with Ala-AEP (1.5 μg/ml) [13]: Growth
growth with Ala-AEP (1.5 μg/ml) [14]: Growth
growth with Ala-AEP (1.5 μg/ml) [15]: Growth
growth with Ala-AEP (1.5 μg/ml) [16]: Growth
growth with Ala-AEP (1.5 μg/ml) [17]: Growth
growth with Ala-AEP (1.5 μg/ml) [18]: Growth
MIC [19]: 0.075 µg/mL (≈ 0.382 µM)

Source: patent US20130189764A1, “SELECTIVE GROWTH MEDIA” (Oxide Limited, priority 2000, published 2013)
